Values joined by “and” are separate entries in the source; they are usually repeats but may differ in a detail not shown here. Equal entries are not always repeated.
Key:
Test in all cases: normalised viability (% of control), CellTiter-Blue; higher = more viable cells (about 100 = DMSO control)
Conditions in all cases: incubation time: 72 h
[1] = test system: CAL-51
Description: (§1)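 DSRT, CellTiter-Blue viability, 72 h incubation. Signal is normalised to DMSO and benzethonium chloride controls. Value is the normalised response at dose 9.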

[2] = test system: CAL-85-1
Description: as §1

[3] = test system: CAL-148
Description: as §1

[4] = test system: MDA-MB-453
Description: as §1

[5] = test system: DU-4475
Description: as §1

[6] = test system: HDQ-P1
Description: as §1

[7] = test system: CAL-51; remark: listed apart in the source
Description: (§2)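 DSRT, CellTiter-Blue viability, 72 h incubation. Signal is normalised to DMSO and benzethonium chloride controls. Value is the normalised response at dose 8.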

[8] = test system: CAL-85-1; remark: listed apart in the source
Description: as §2

[9] = test system: CAL-148; remark: listed apart in the source
Description: as §2

[10] = test system: MDA-MB-453; remark: listed apart in the source
Description: as §2

[11] = test system: DU-4475; remark: listed apart in the source
Description: as §2

[12] = test system: HDQ-P1; remark: listed apart in the source
Description: as §2

Molecule `O=S(=O)(c1cccc2cnccc12)N1CCCNCC1` [Fasudil] (10000 nM) has a normalised viability [1] of 109%, a normalised viability [2] of 99.3% and a normalised viability [3] of 82.3%. The normalised viability [4] was 57.8%, the normalised viability [5] was 101% and the normalised viability [6] was 180%.
Work on `O=C(NC[C@H](O)CO)c1ccncc1Nc1ccc(I)cc1F` (10000 nM) yielded a normalised viability [1] of 65%, a normalised viability [2] of 39.9% and a normalised viability [3] of 70.5%. It also gave a normalised viability [4] of 37.1%, a normalised viability [5] of -0.44% and a normalised viability [6] of 46.3%.
In the case of `c1cc(CN2CCCNCCNCCCNCC2)ccc1CN1CCCNCCNCCCNCC1` [Plerixafor] (750 nM), the normalised viability [7] is reported as 103%, the normalised viability [8] is reported as 93% and the normalised viability [9] is reported as 79.1%. For the same molecule, the normalised viability [10] was 92.5%, the normalised viability [11] was 95.9% and the normalised viability [12] was 119%.
Work on `CO[C@@H](C(=O)N1Cc2[nH]nc(NC(=O)c3ccc(N4CCN(C)CC4)cc3)c2C1)c1ccccc1` [Danusertib] (3000 nM) yielded a normalised viability [7] of 25.9%, a normalised viability [8] of 40.5% and a normalised viability [9] of 53.5%. For the same molecule, the normalised viability [10] was 34.2%, the normalised viability [11] was 23.1% and the normalised viability [12] was 27.8%.
With `Cc1nc(Nc2ncc(C(=O)Nc3c(C)cccc3Cl)s2)cc(N2CCN(CCO)CC2)n1` [Dasatinib] (300 nM) the normalised viability [7] was 41.5% and 39.9%, the normalised viability [8] was 51.2% and 43.6% and the normalised viability [9] was 90% and 89.1%. The normalised viability [10] was 99.2% and 103%, the normalised viability [11] was 102% and 104% and the normalised viability [12] was 9.87% and 10.7%.
For `Nc1cccc2c1CN(C1CCC(=O)NC1=O)C2=O` (centres undefined) [Lenalidomide] (3000 nM), the normalised viability [7] was 109% and 105%, the normalised viability [8] was 88.6% and 90.2% and the normalised viability [9] was 80.2% and 98.3%. The normalised viability [10] was 96.9% and 117%, the normalised viability [11] was 101% and 100% and the normalised viability [12] was 93.5% and 92.2%.
Work on `Cn1cc(CNCC2CCN(c3ncc(C(=O)NO)cn3)CC2)c2ccccc21` (300 nM) yielded a normalised viability [7] of 7.57%, a normalised viability [8] of 8.58% and a normalised viability [9] of 1.57%. For the same molecule, the normalised viability [10] was 2.81%, the normalised viability [11] was 2.97% and the normalised viability [12] was 18.8%.
Work on `Cc1c(CN2CCN(C(=O)[C@H](C)O)CC2)sc2c(N3CCOCC3)nc(-c3cnc(N)nc3)nc12` [GDC-0980] (3000 nM) yielded a normalised viability [7] of 7.42%, a normalised viability [8] of 16.9% and a normalised viability [9] of 5.28%. It also gave a normalised viability [10] of 6.67%, a normalised viability [11] of 19.4% and a normalised viability [12] of 14.2%.
In the case of `CCC/C=C/C=C/C(=O)O[C@H]1/C(=C/C(=O)OC)C[C@H]2C[C@H]([C@@H](C)O)OC(=O)C[C@H](O)C[C@@H]3C[C@H](OC(C)=O)C(C)(C)[C@](O)(C[C@@H]4C/C(=C/C(=O)OC)C[C@H](/C=C/C(C)(C)[C@]1(O)O2)O4)O3` [Bryostatin 1] (30 nM), the normalised viability [7] is reported as 95.3%, the normalised viability [8] is reported as 111% and the normalised viability [9] is reported as 110%. It also gave a normalised viability [10] of 96.6%, a normalised viability [11] of 65% and a normalised viability [12] of 100%.
`CS(=O)(=O)N1CCN(Cc2cc3nc(-c4cccc5[nH]ncc45)nc(N4CCOCC4)c3s2)CC1` [GDC-0941] (10000 nM) showed a normalised viability [1] of 2.35%, a normalised viability [2] of 13.3% and a normalised viability [3] of 0.59%. For the same molecule, the normalised viability [4] was 5.58%, the normalised viability [5] was -0.76% and the normalised viability [6] was 12.8%.
Molecule `Cc1cccc(-c2nn3c(c2-c2ccnc4ccc(C(N)=O)cc24)CCC3)n1` (1000 nM) has a normalised viability [1] of 103%, a normalised viability [2] of 101% and a normalised viability [3] of 79.7%. For the same molecule, the normalised viability [4] was 104%, the normalised viability [5] was 124% and the normalised viability [6] was 133%.
For `O=C1c2c(O)ccc(O)c2C(=O)c2c(NCCNCCO)ccc(NCCNCCO)c21` [Mitoxantrone] (300 nM), the normalised viability [7] was 28%, the normalised viability [8] was 59.1% and the normalised viability [9] was 12.7%. The normalised viability [10] was 66%, the normalised viability [11] was 9.52% and the normalised viability [12] was 52.5%.
Work on `O=C(Nc1c[nH]nc1-c1nc2ccc(CN3CCOCC3)cc2[nH]1)NC1CC1` [AT9283] (10000 nM) yielded a normalised viability [1] of 4.48%, a normalised viability [2] of -0.09% and a normalised viability [3] of 1.55%. It also gave a normalised viability [4] of 11.2%, a normalised viability [5] of -1.62% and a normalised viability [6] of 7.44%.
`COc1cc(CCc2cc(NC(=O)c3ccc(N4CC(C)NC(C)C4)cc3)n[nH]2)cc(OC)c1` (centres undefined) [AZD4547] (300 nM) showed a normalised viability [7] of 96.4%, a normalised viability [8] of 95.5% and a normalised viability [9] of 105%. The normalised viability [10] was 56.1%, the normalised viability [11] was 97.8% and the normalised viability [12] was 117%.
In the case of `c1cc(CN2CCCNCCNCCCNCC2)ccc1CN1CCCNCCNCCCNCC1` [Plerixafor] (2500 nM), the normalised viability [1] is reported as 111%, the normalised viability [2] is reported as 97% and the normalised viability [3] is reported as 83.5%. The normalised viability [4] was 103%, the normalised viability [5] was 99.3% and the normalised viability [6] was 125%.
`CCN(CC)CCNC(=O)c1c(C)[nH]c(/C=C2\C(=O)Nc3ccc(F)cc32)c1C` [Sunitinib] (300 nM) was tested, and the normalised viability [7] was 113% and 96%, the normalised viability [8] was 107% and 105% and the normalised viability [9] was 93.2% and 108%. For the same molecule, the normalised viability [10] was 101% and 83.8%, the normalised viability [11] was 102% and 94.5% and the normalised viability [12] was 97.1% and 115%.
`C[C@]12C=CC(=O)C=C1CC[C@@H]1[C@@H]2[C@@H](O)C[C@@]2(C)[C@H]1CC[C@]2(O)C(=O)CO` [Prednisolone] (3000 nM) was tested, and the normalised viability [7] was 102%, the normalised viability [8] was 117% and the normalised viability [9] was 96%. For the same molecule, the normalised viability [10] was 75.4%, the normalised viability [11] was 106% and the normalised viability [12] was 121%.
Work on `Nc1ccccc1NC(=O)c1ccc(CNc2nccc(-c3cccnc3)n2)cc1` [Mocetinostat] (3000 nM) yielded a normalised viability [7] of 51.7%, a normalised viability [8] of 23.6% and a normalised viability [9] of 37.3%. It also gave a normalised viability [10] of 20.6%, a normalised viability [11] of 5.41% and a normalised viability [12] of 71.6%.
Work on `CS(=O)(=O)N1CCN(Cc2cc3nc(-c4cccc5[nH]ncc45)nc(N4CCOCC4)c3s2)CC1` [GDC-0941] (3000 nM) yielded a normalised viability [7] of 14.3%, a normalised viability [8] of 31.9% and a normalised viability [9] of 18.6%. For the same molecule, the normalised viability [10] was 10.6%, the normalised viability [11] was 104% and the normalised viability [12] was 14.5%.
Work on `Nc1nc(=O)c2c([nH]1)NCC(CNc1ccc(C(=O)N[C@@H](CCC(=O)O)C(=O)O)cc1)N2C=O` (mixture of isomers) [Folinic acid] (297 nM) yielded a normalised viability [7] of 92.8%, a normalised viability [8] of 100% and a normalised viability [9] of 95.2%. The normalised viability [10] was 106%, the normalised viability [11] was 98.8% and the normalised viability [12] was 122%.
With `Cn1cc(CNCC2CCN(c3ncc(C(=O)NO)cn3)CC2)c2ccccc21` (1000 nM) the normalised viability [1] was 2.6%, the normalised viability [2] was 3.26% and the normalised viability [3] was 0.7%. It also gave a normalised viability [4] of 2.12%, a normalised viability [5] of 3.03% and a normalised viability [6] of 18.9%.
`O=C(CCBr)N1CCN(C(=O)CCBr)CC1` [Pipobroman] (3000 nM) showed a normalised viability [7] of 124%, a normalised viability [8] of 102% and a normalised viability [9] of 104%. It also gave a normalised viability [10] of 108%, a normalised viability [11] of 106% and a normalised viability [12] of 100%.
In the case of `Nc1nc(=O)c2c([nH]1)NCC(CNc1ccc(C(=O)N[C@@H](CCC(=O)O)C(=O)O)cc1)N2C=O` (mixture of isomers) [Folinic acid] (990 nM), the normalised viability [1] is reported as 94.1%, the normalised viability [2] is reported as 98% and the normalised viability [3] is reported as 105%. It also gave a normalised viability [4] of 103%, a normalised viability [5] of 115% and a normalised viability [6] of 86.9%.
`O=C(NC[C@H](O)CO)c1ccncc1Nc1ccc(I)cc1F` (3000 nM) gave a normalised viability [7] of 78.9%, a normalised viability [8] of 48% and a normalised viability [9] of 66.8%. It also gave a normalised viability [10] of 57.3%, a normalised viability [11] of 0.63% and a normalised viability [12] of 57.4%.
